ChEMBL document CHEMBL3826947, “New 4-Acyl-1-phenylaminocarbonyl-2-phenylpiperazine Derivatives as Potential Inhibitors of Adenovirus Infection. Synthesis, Biological Evaluation, and Structure-activity Relationships” (J Med Chem, 2016)

Tests used:
[1] = tested on: Human adenovirus 5; assay: Antiviral activity against HAdV5 infected in 293beta5 cells assessed as inhibition of plaque formation at 10 uM after 7 days by GFP reporter gene assay relative to control; type: functional; settings: Human mastadenovirus C, 293beta5, 168 h
[2] = tested on: Human adenovirus 5; assay: Antiviral activity against HAdV5 infected in human A549 cells assessed as inhibition of viral entry at 50 uM preincubated for 45 mins followed by cell addition measured after 48 hrs by GFP reporter gene assay relative to control; type: functional; settings: Human mastadenovirus C
[3] = Cytotoxicity against human A549 cells assessed as cell viability after 48 hrs by Alamar blue assay; type: cell-based

Compound | inhibition at 10 µM [1] [%] | inhibition at 50 µM [2] [%] | CC50 at 48 h [3] [µM]
COc1ccc(NC(=O)N2CCN(C(=O)c3cc4ccccc4o3)CC2C)cc1 (stereo not drawn) | 34 | < 20 | 
CC1CN(C(=O)OC(C)(C)C)CCN1C(=O)c1ccc([N+](=O)[O-])cc1 (stereo not drawn) | 34 | < 20 | 
CC1CN(C(=O)OC(C)(C)C)CCN1C(=O)Nc1ccc(C(F)(F)F)cc1 (stereo not drawn) | 31 | 57 | 137
COc1ccc(C(=O)N2CCN(C(=O)C(C)(C)C)CC2C)cc1 (stereo not drawn) | 0 | < 20 | 
CC1CN(C(=O)c2ccccc2)CCN1C(=O)Nc1ccc([N+](=O)[O-])cc1 (stereo not drawn) | 72 | 50 | 
CC1CN(C(=O)OC(C)(C)C)CCN1C(=S)Nc1ccc([N+](=O)[O-])cc1 (stereo not drawn) | 100 | < 20 | 26.3
CC1CN(C(=O)c2cc3ccccc3o2)CCN1C(=O)Nc1ccc([N+](=O)[O-])cc1 (stereo not drawn) | 94 | 86 | 51.1
CC1CN(C(=O)C(C)(C)C)CCN1C(=O)Nc1ccc([N+](=O)[O-])cc1 (stereo not drawn) | 0 | 50 | 
COc1ccc(NC(=O)N2CCN(C(=O)OC(C)(C)C)CC2C)cc1 (stereo not drawn) | 49 |  | 
CC1CN(C(=O)C(C)(C)C)CCN1C(=O)c1ccc([N+](=O)[O-])cc1 (stereo not drawn) | 23 | < 20 | 
COc1ccc(C(=O)N2CCN(C(=O)OC(C)(C)C)CC2C)cc1 (stereo not drawn) | 34 | < 20 | 
CC1CN(C(=O)c2cc3ccccc3o2)CCN1C(=O)Nc1ccccc1[N+](=O)[O-] (stereo not drawn) | 91 | 0 | 203
CC1CN(C(=O)OC(C)(C)C)CCN1C(=O)Nc1ccccc1[N+](=O)[O-] (stereo not drawn) | 50 | 0 | 
O=C(c1cc2ccccc2o1)N1CCN(C(=O)Nc2ccc(F)cc2)C(c2ccccc2)C1 (stereo not drawn) | 99 | 88 | 12.5
CC1CN(C(=O)c2cc3ccccc3o2)CCN1C(=O)Nc1ccc(C(F)(F)F)cc1 (stereo not drawn) | 92 | 60 | 82.2
CC1CN(C(=O)c2cc3ccccc3o2)CCN1C(=O)Nc1ccc(Cl)cc1 (stereo not drawn) | 70 | 36 | 144
CC(C)(C)C(=O)N1CCN(C(=O)Nc2ccc([N+](=O)[O-])cc2)C(c2ccccc2)C1 (stereo not drawn) | 44 | 60 | 102
CC(C)(C)OC(=O)N1CCN(C(=O)Nc2ccccc2[N+](=O)[O-])C(c2ccccc2)C1 (stereo not drawn) | 100 | 62 | 82.2
COc1ccc(NC(=O)N2CCN(C(=O)OC(C)(C)C)CC2c2ccccc2)cc1 (stereo not drawn) | 79 | 39 | 133
CC1CN(C(=O)OC(C)(C)C)CCN1C(=O)Nc1ccc(Cl)c(C(F)(F)F)c1 (stereo not drawn) | 100 | 72 | 20.8
CC1CN(C(=O)OC(C)(C)C)CCN1C(=O)Nc1ccc(Cl)cc1 (stereo not drawn) | 62 | 37 | 150
CC1CN(C(=O)c2cc3ccccc3o2)CCN1C(=O)Nc1ccccc1Br (stereo not drawn) | 56 | 44 | 
CC(C)(C)OC(=O)N1CCN(C(=O)Nc2cc(C(F)(F)F)ccc2Cl)C(c2ccccc2)C1 (stereo not drawn) | 100 | 89 | 93.4

Compound | inhibition at 10 µM [1] [%] | inhibition at 50 µM [2] [%] | CC50 at 48 h [3] [µM]
CC1CN(C(=O)c2cc3ccccc3o2)CCN1C(=O)Nc1ccc(F)cc1 (stereo not drawn) | 92 | 0 | 220
CC(C)(C)OC(=O)N1CCN(C(=O)Nc2ccc(C(F)(F)F)cc2)C(c2ccccc2)C1 (stereo not drawn) | 71 | 75 | 42.1
CC1CN(C(=O)c2ccccc2)CCN1C(=S)Nc1ccc([N+](=O)[O-])cc1 (stereo not drawn) | 94 | 41 | 31.4
COc1ccccc1NC(=O)N1CCN(C(=O)c2cc3ccccc3o2)CC1C (stereo not drawn) | 16 | 0 | 
CC(C)(C)OC(=O)N1CCN(C(=O)Nc2ccc(Cl)cc2)C(c2ccccc2)C1 (stereo not drawn) | 86 | 96 | 17.1
COc1ccc(NC(=O)N2CCN(C(=O)C(C)(C)C)CC2c2ccccc2)cc1 (stereo not drawn) | 70 | 0 | 199
CC1CN(C(=O)OC(C)(C)C)CCN1C(=O)Nc1cc(C(F)(F)F)ccc1Cl (stereo not drawn) | 96 | 31 | 63.5
COc1ccc(NC(=O)N2CCN(C(=O)C(C)(C)C)CC2C)cc1 (stereo not drawn) | 0 | < 20 | 
CC1CN(C(=O)c2cc3ccccc3o2)CCN1C(=O)Nc1ccccc1 (stereo not drawn) | 11 | 0 | 
COc1ccc(C(=O)N2CCN(C(=O)c3ccccc3)CC2C)cc1 (stereo not drawn) | 0 | 0 | 
CC1CN(C(=O)c2cc3ccccc3o2)CCN1C(=O)Nc1ccc(C#N)cc1 (stereo not drawn) | 83 | 78 | 118
CC(C)(C)OC(=O)N1CCN(C(=O)Nc2ccc(Cl)c(C(F)(F)F)c2)C(c2ccccc2)C1 (stereo not drawn) | 100 | 93 | 27.5
CC(C)(C)OC(=O)N1CCN(C(=O)Nc2ccc(F)cc2)C(c2ccccc2)C1 (stereo not drawn) | 76 | 70 | 110
CC(C)(C)C(=O)N1CCN(C(=O)Nc2ccc(C#N)cc2)C(c2ccccc2)C1 (stereo not drawn) | 84 | 74 | 147
CC1CN(C(=O)C(C)(C)C)CCN1C(=S)Nc1ccc([N+](=O)[O-])cc1 (stereo not drawn) | 64 | < 20 | 
CC1CN(C(=O)c2cc3ccccc3o2)CCN1C(=O)Nc1ccc(F)cc1F (stereo not drawn) | 34 | 0 | 
CC1CN(C(=O)OC(C)(C)C)CCN1C(=O)Nc1ccc([N+](=O)[O-])cc1 (stereo not drawn) | 91 | 65 | 143
CC1CN(C(=O)c2cc3ccccc3o2)CCN1C(=O)Nc1ccccc1F (stereo not drawn) | 51 | 0 | 
CC(C)(C)OC(=O)N1CCN(C(=O)Nc2ccc(C#N)cc2)C(c2ccccc2)C1 (stereo not drawn) | 67 | 45 | 91.3
Cc1ccc(NC(=O)N2CCN(C(=O)OC(C)(C)C)CC2c2ccccc2)cc1 (stereo not drawn) | 63 | 65 | 165
COc1ccc(NC(=O)N2CCN(C(=O)c3ccccc3)CC2C)cc1 (stereo not drawn) | 0 | 50 | 
CC1CN(C(=O)c2ccccc2)CCN1C(=O)c1ccc([N+](=O)[O-])cc1 (stereo not drawn) | 0 | < 20 | 
O=C(c1cc2ccccc2o1)N1CCN(C(=O)Nc2ccc(C(F)(F)F)cc2)C(c2ccccc2)C1 (stereo not drawn) | 100 | 61 | 70.7
